# Data from patent publication US9127255B2, “3-dimensional scaffolds for improved differentiation of pluripotent stem cells to hepatocytes” (Takara Bio Europe AB, priority 2010, dated 2015).
# Tested on: CYP2C9
# Test: CYP2C9 activity and induction in cells cultured in Alvatex (ReInnervate) scaffolds, OH-Diclophenac by HPLC
# Type: cell-based, human
# Details: cells cultured on 3D surfaces (FIG. 8)
# Procedure: Cell line SA461 (Cellartis AB) was cultured and differentiated according to conditions in Examples 1 and 2, experiment 083 and then according to the scheme below: Cells were induced with 1 mM Phenobarbital, 10 μM dexamethasone and 5 μM β-naphthoflavone. To each well, either induction or control medium was added (400 ul/well 2D cultures, 2000 ul/well in […] scaffolds) and the plate was incubated 24 h. After 24 hours of induction, all wells were washed 2× in DPBS+/+ and activity assay medium was added, 200 ul/well in 2D controls and 1000 ul/well in ReInnervate scaffolds. […] After 16 hours incubation at 37 C, the medium was transferred to eppendorf tubes and spun down for 20 min at 4° C. and 10000 g. […] Figures show CYP response in hESC-derived hepatocytes cultured either on […]) or 2D control, cells induced with Diclofenac to mimic hepatic liver activity. Activity assay performed at day 23 and day 29 as indicated.
compound,measurement,value
O=C(O)Cc1ccccc1Nc1c(Cl)cccc1Cl [diclophenac],CYP2C9 activity when cells were treated,elevated
